Columns and labels:
Assay type in all cases: cell-based
[1] = system: SPI1 type III protein secretion system (SipB secretion); experiment: Secondary assay: Type III-dependent protein secretion of the SipB polypeptide by S. enterica (immunoblot); conditions: Salmonella enterica, read-out: SipB IC50(uM)
How it was run: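 S. enterica cultured with or without inhibitor and induced for SipB production; after growth, cells pelleted and secreted SipB in supernatant measured by immunoblot with anti-SipB mouse monoclonal plus HRP anti-mouse and chemiluminescence, quantified by scanning imager. Inhibition expressed relative to untreated controls.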

[2] = system: type III protein secretion system of P. aeruginosa PA103 (ExoU secretion); experiment: Tertiary assay: Type III-dependent secretion of ExoU by P. aeruginosa PA103 (SDS-PAGE band quantitation); conditions: Pseudomonas aeruginosa, ExoU secreted into extracellular medium
From the text: Tertiary assay: inhibition of Type III protein secretion of effectors from a Pseudomonas aeruginosa system. Type III protein secretion is used by P. aeruginosa to secrete several essential virulence determinants. One effector of the type III protein secretion system of P. aeruginosa PA103 is the virulence determinants ExoU.
The amount of Type III-dependent secretion of ExoU by P. aeruginosa PA103 can be determined in a cell-based assay by quantification of the 73.9 kDa ExoU protein secreted into the extracellular medium. Such quantitation can be achieved by growing strain PA103 in a deferrated medium in the presence of nitrilotriacetic acid (an inducer of Type III protein secretion in P. aeruginosa) and either in the presence or absence of putative inhibitors. After a prolonged growth period, the cells are sedimented and the supernatants concentrated by ammonium sulfate precipitation. The proteins in the resuspended pellets are separated by electrophoresis on SDS-polyacrylamide gels. After staining gels with Colloidal Blue™, the 73.9 kDa ExoU band is quantitated by scanning through an imager. The effects of inhibitors on the intensity of the ExoU band may be measured relative to that of untreated controls.

[3] = system: SPI1 type III protein secretion system (SopE-Bla secretion); experiment: Primary assay: Type III protein secretion of the chimeric SopE-Bla polypeptide by Salmonella enterica (nitrocefin hydrolysis); conditions: read-out: SopE IC50(uM)
How it was run: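 Salmonella enterica grown under SPI1-favouring conditions, induced to express SopE–TEM-1 β-lactamase chimera, cultured with or without compound for a set time.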

O=C(Nc1cc(-c2ccc(Oc3ccccc3)cc2)cn(C(CSCc2ccccc2)C(=O)O)c1=O)c1ccc(C(F)(F)F)cc1 (stereo in doubt) [Compound 15, (R)-3-Benzylsulfanyl-2-[2-oxo-5-(4-phenoxyphenyl)-3-(4-trifluoromethyl-benzoylamino)-2H-pyridin-1-yl]propionic acid]
IC50 [1]: 67.9 µM
IC50 [2]: 83.4 µM
IC50 [3]: 9.1 µM

O=C(Nc1cc(-c2ccc(Cl)c(Cl)c2)cn(C(Cc2ccc(Cl)cc2)C(=O)O)c1=O)c1ccc(-c2ccccc2)cc1 (stereo not drawn) [Compound 34, 2-[3-[(Biphenyl-4-carbonyl)amino]-5-(3,4-dichlorophenyl)-2-oxo-2H-pyridin-1-yl]-3-(4-chlorophenyl)propionic acid]
IC50 [1]: 24.8 µM
IC50 [2]: > 100 µM
IC50 [3]: 8.7 µM

Reference: US7087622B2, “Pyridone compounds as inhibitors of bacterial type III protein secreation systems” (priority 2004, dated 2006)
